Results published in patent US12673975B2, “Cyclic peptide, cell scaffold material, cell separating material, and medium” (FUJIFILM Corporation, priority 2019, dated 2026).
Read-outs that look alike come from different tables or passages of the source. Starred links: 1 amine or outer side, 2 acyl side, 3 side chain; linkers in the order of their positions; H or OH if unused. Positions of bridges follow the written chain, without caps; N, C: chain ends. Non-standard residues stand in square brackets, D forms with d. Residues, ends and D or L forms follow the SMILES beside them. Pen = CC(C)(S)[C@H](N)C(=O)O; hCys = N[C@@H](CCS)C(=O)O; Dab = NCC[C@H](N)C(=O)O; Dap = NC[C@H](N)C(=O)O; X1 = O=C(C[*:2])[*:1]; X2 = O=C(C[*:1])[*:2]

Experiments:
[1] = target: human integrin αvβ5 (Homo sapiens, UniProt P06756+P18084); assay: Evaluation of integrin binding property (surface plasmon resonance, Biacore 3000, immobilized cyclic peptide)
Outline: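 SPR with cyclic peptide amine-coupled via EDC/NHS to a CM5 chip, blank channel as reference. Integrin αvβ5 at 30, 100, 300 and 1,000 nM injected 10 min at 25 °C in HEPES buffer pH 7.4 with 5 mM MgCl2, 30 min buffer flow, EDTA regeneration; Kd from reference-subtracted signals, graded by category.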

[2] = Evaluation of molecule stability (alkali treatment, residual rate by LC/MS); assay type: physicochemical; conditions: for Stability (molecule stability, residual rate of the cyclic peptide rank): alkali treatment, residual rate by LC/MS; for Performance evaluation: Stability (residual rate of cyclic peptide after alkali treatment): 500 μM peptide aqueous solution plus equivalent of 1 M sodium hydroxide, 15° C., 3 hours, LC/MS peak area
Outline: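 500 μM aqueous cyclic peptide mixed with an equal volume of 1 M NaOH and held 3 h at 15 °C. Residual rate is total LC/MS peak area after treatment relative to untreated (100%), using a C18 column, pH 3 ammonium formate/acetonitrile gradient, 45 °C, ESI±.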

[3] = surface plasmon resonance, immobilized cyclic peptide, human integrin αvβ5, read-out: Binding activity (integrin binding property, dissociation constant rank)
[4] = SPR, 25° C., HEPES buffer with 5 mM magnesium chloride, integrin 30-1,000 nM, read-out: Performance evaluation: Binding activity (dissociation constant between the cyclic peptide and human integrin αvβ5)

Sequence of human integrin αvβ5 (P06756 31-1048): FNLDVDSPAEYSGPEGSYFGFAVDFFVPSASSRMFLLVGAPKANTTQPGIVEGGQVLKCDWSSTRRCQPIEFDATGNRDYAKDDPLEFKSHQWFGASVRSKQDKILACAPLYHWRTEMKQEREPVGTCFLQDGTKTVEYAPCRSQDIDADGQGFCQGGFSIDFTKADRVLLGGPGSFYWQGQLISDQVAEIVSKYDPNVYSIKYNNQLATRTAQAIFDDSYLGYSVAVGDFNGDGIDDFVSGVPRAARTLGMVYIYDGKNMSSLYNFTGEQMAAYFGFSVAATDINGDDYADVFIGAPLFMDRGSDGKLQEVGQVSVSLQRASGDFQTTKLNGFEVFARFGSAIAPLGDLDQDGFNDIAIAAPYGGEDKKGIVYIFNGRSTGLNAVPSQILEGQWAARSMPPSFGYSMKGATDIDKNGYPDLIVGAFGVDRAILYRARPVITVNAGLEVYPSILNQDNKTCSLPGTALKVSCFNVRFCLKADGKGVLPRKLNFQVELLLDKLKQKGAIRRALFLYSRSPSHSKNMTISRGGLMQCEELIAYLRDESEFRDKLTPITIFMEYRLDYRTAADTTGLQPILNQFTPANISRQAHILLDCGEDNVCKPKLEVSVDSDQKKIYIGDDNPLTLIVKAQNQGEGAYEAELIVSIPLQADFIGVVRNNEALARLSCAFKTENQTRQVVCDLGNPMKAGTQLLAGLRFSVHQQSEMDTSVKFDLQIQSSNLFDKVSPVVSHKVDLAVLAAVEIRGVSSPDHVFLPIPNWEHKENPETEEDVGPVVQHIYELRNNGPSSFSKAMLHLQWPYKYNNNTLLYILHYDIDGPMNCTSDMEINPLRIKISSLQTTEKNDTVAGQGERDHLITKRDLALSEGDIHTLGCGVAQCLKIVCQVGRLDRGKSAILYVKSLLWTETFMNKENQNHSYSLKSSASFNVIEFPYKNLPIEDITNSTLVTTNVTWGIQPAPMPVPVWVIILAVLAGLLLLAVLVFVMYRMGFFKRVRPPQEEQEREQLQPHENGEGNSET
Sequence of human integrin αvβ5 (P18084 24-799): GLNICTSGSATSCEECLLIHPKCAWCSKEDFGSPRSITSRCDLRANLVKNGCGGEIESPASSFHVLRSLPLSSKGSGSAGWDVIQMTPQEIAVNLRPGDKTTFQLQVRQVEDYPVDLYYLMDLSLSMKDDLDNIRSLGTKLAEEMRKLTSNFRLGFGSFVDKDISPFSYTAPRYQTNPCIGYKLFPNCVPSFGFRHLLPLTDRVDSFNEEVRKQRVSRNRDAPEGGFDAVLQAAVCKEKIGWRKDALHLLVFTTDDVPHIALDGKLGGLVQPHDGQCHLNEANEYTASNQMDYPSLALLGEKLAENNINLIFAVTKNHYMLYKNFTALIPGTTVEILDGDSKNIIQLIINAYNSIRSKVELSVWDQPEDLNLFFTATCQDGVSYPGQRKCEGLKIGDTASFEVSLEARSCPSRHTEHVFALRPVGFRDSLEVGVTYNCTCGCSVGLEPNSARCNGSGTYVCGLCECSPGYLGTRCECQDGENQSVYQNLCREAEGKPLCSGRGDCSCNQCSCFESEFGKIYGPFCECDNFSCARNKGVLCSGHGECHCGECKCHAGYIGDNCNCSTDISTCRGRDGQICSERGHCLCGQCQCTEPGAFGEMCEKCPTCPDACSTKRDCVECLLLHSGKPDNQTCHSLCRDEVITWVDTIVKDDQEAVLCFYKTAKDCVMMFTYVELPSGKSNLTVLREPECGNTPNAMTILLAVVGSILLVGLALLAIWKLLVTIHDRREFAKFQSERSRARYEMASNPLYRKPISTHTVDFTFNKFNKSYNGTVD

Kd [1, 3] [nM]	Kd [1, 4] [nM]	Compound	Stability (molecule stability, residual rate of the cyclic peptide rank) [2]	molecule stability (in words) ([2]; summary of Table 9 to Table 13)	Performance evaluation: Stability (residual rate of cyclic peptide after alkali treatment) [2]
< 50	–	CC[C@H](C)[C@@H]1NC(=O)[C@@H](NC(=O)[C@H](CCCCN)NC(=O)[C@H](CCCCN)NC(=O)[C@@H](N)CCCCN)CCSCC(=O)NCC[C@@H](C(=O)N[C@@H](C)C(=O)O)NC(=O)[C@H](C)NC(=O)[C@H](Cc2ccccc2)NC(=O)[C@H](CO)NC(=O)[C@H](CC(=O)O)NC(=O)CNC(=O)[C@H](CCCNC(=N)N)NC(=O)[C@@H]2CCCN2C1=O [Cyclic peptide 163, KKK-(Hcy)-IPRGDSFA(Dab(acetyl))A] (H-KKK[hCys]IPRGDSFA[Dab]A-OH; linker 4-13 via X2)	A (The residual rate of the cyclic peptide is 70% or more.)	–	–
< 50	–	C[C@H](NC(=O)[C@H](CCCCN)NC(=O)[C@H](CCCCN)NC(=O)[C@@H](N)CCCCN)C(=O)N[C@H]1CNC(=O)CSC[C@@H](C(=O)O)NC(=O)[C@H](CCCNC(=N)N)NC(=O)[C@H](Cc2ccc(O)cc2)NC(=O)[C@H](CC(N)=O)NC(=O)[C@H](CC(=O)O)NC(=O)CNC(=O)[C@H](CCCNC(=N)N)NC(=O)[C@@H]2CCCN2C(=O)[C@H](CCC(=O)O)NC1=O [Cyclic peptide 166, KKKA(Dap(acetyl))EPRGDNYR(C), reference compound] (H-KKKA[Dap]EPRGDNYRC-OH; linker 5-14 via X1)	D (The residual rate of the cyclic peptide is less than 30%.)	a practically sufficient molecule stability could be obtained	–
< 50	–	CC(C)[C@@H]1NC(=O)[C@@H](NC(=O)[C@H](C)N)CCSCC(=O)NCC[C@@H](C(=O)N[C@@H](C)C(=O)N[C@@H](CCCCN)C(=O)N[C@@H](CCCCN)C(=O)N[C@@H](CCCCN)C(=O)O)NC(=O)[C@H](C)NC(=O)[C@H](Cc2ccccc2)NC(=O)[C@H]([C@@H](C)O)NC(=O)[C@H](CC(=O)O)NC(=O)CNC(=O)[C@H](CCCNC(=N)N)NC(=O)[C@@H]2CCCN2C1=O [Cyclic peptide 109, A-(Hcy)-VPRGDTFA(Dab(acetyl))AKKK] (H-A[hCys]VPRGDTFA[Dab]AKKK-OH; linker 2-11 via X2)	A (The residual rate of the cyclic peptide is 70% or more.)	–	–
< 50	–	CC(C)[C@@H]1NC(=O)[C@@H](NC(=O)[C@H](C)NC(=O)[C@H](CCCCN)NC(=O)[C@H](CCCCN)NC(=O)[C@H](CCCCN)NC(=O)[C@@H](N)CCCCN)CCSCC(=O)NCC[C@@H](C(=O)N[C@@H](C)C(=O)O)NC(=O)[C@H](C)NC(=O)[C@H](Cc2ccccc2)NC(=O)[C@H]([C@@H](C)O)NC(=O)[C@H](CC(=O)O)NC(=O)CNC(=O)[C@H](CCCNC(=N)N)NC(=O)[C@@H]2CCCN2C1=O [Cyclic peptide 110, KKKKA-(Hcy)-VPRGDTFA(Dab(acetyl))A] (H-KKKKA[hCys]VPRGDTFA[Dab]A-OH; linker 6-15 via X2)	A (The residual rate of the cyclic peptide is 70% or more.)	–	–
–	< 50	CC[C@H](C)[C@@H]1NC(=O)[C@@H](NC(=O)CNC(=O)[C@H](CCCCN)NC(=O)[C@H](CCCCN)NC(=O)[C@@H](N)CCCCN)CCSCC(=O)NCC[C@@H](C(=O)N[C@@H](C)C(=O)O)NC(=O)[C@H](CCCNC(=N)N)NC(=O)[C@H](Cc2ccccc2)NC(=O)[C@H]([C@@H](C)O)NC(=O)[C@H](CC(=O)O)NC(=O)CNC(=O)[C@H](CCCNC(=N)N)NC(=O)[C@@H]2CCCN2C1=O [Cyclic peptide 54, KKKG-(Hcy)-IPRGDTFR(Dab(acetyl))A] (H-KKKG[hCys]IPRGDTFR[Dab]A-OH; linker 5-14 via X2)	–	–	A (The residual rate of the cyclic peptide is 70% or more.)
–	< 50	CC[C@H](C)[C@@H]1NC(=O)[C@@H](NC(=O)[C@H](C)NC(=O)[C@H](CCCCN)NC(=O)[C@H](CCCCN)NC(=O)[C@@H](N)CCCCN)CCSCC(=O)NCC[C@@H](C(=O)N[C@@H](C)C(=O)O)NC(=O)[C@H](C)NC(=O)[C@H](Cc2ccccc2)NC(=O)[C@H](C)NC(=O)[C@H](CC(=O)O)NC(=O)CNC(=O)[C@H](CCCNC(=N)N)NC(=O)[C@@H]2CCCN2C1=O [Cyclic peptide 90, KKKA-(Hcy)-IPRGDAFA(Dab(acetyl))A] (H-KKKA[hCys]IPRGDAFA[Dab]A-OH; linker 5-14 via X2)	–	–	A (The residual rate of the cyclic peptide is 70% or more.)
–	< 50	CC[C@H](C)[C@@H]1NC(=O)[C@@H](NC(=O)CNC(=O)[C@H](CCCCN)NC(=O)[C@H](CCCCN)NC(=O)[C@@H](N)CCCCN)CCSCC(=O)NCC[C@@H](C(=O)O)NC(=O)[C@H](CCCNC(=N)N)NC(=O)[C@H](Cc2ccccc2)NC(=O)[C@H]([C@@H](C)O)NC(=O)[C@H](CC(=O)O)NC(=O)CNC(=O)[C@H](CCCNC(=N)N)NC(=O)[C@@H]2CCCN2C1=O [Cyclic peptide 59, KKKG-(Hcy)-IPRGDTFR(Dab(acetyl))] (H-KKKG[hCys]IPRGDTFR[Dab]-OH; linker 5-14 via X2)	–	–	A (The residual rate of the cyclic peptide is 70% or more.)
50 to 100	–	CC[C@H](C)[C@@H]1NC(=O)[C@@H](NC(=O)CNC(=O)[C@H](CCCCN)NC(=O)[C@H](CCCCN)NC(=O)[C@@H](N)CCCCN)CCCCNC(=O)CSC[C@@H](C(=O)N[C@@H](C)C(=O)O)NC(=O)[C@H](CCCNC(=N)N)NC(=O)[C@H](Cc2ccccc2)NC(=O)[C@H]([C@@H](C)O)NC(=O)[C@H](CC(=O)O)NC(=O)CNC(=O)[C@H](CCCNC(=N)N)NC(=O)[C@@H]2CCCN2C1=O [Cyclic peptide 140, KKKG(Lys(acetyl))IPRGDTFR(C)A] (H-KKKGKIPRGDTFRCA-OH; linker 5-14 via X1)	C (The residual rate of the cyclic peptide is 30% or more and less than 50%.)	–	–
–	50 to 100	C[C@H](NC(=O)[C@H](CCCCN)NC(=O)[C@H](CCCCN)NC(=O)[C@@H](N)CCCCN)C(=O)N[C@H]1CNC(=O)CSCC[C@@H](C(N)=O)NC(=O)[C@H](CCCNC(=N)N)NC(=O)[C@H](Cc2ccc(O)cc2)NC(=O)[C@H](CC(N)=O)NC(=O)[C@H](CC(=O)O)NC(=O)CNC(=O)[C@H](CCCNC(=N)N)NC(=O)[C@@H]2CCCN2C(=O)[C@H](CCC(=O)O)NC1=O [Cyclic peptide 53, KKKA(Dap(acetyl))EPRGDNYR-(Hcy)] (H-KKKA[Dap]EPRGDNYR[hCys]-NH2; linker 5-14 via X1)	–	–	B (The residual rate of the cyclic peptide is 50% or more and less than 70%.)
–	50 to 100	CC[C@H](C)[C@@H]1NC(=O)[C@@H](NC(=O)CNC(=O)[C@H](CCCCN)NC(=O)[C@H](CCCCN)NC(=O)[C@@H](N)CCCCN)CCSCC(=O)NCC[C@@H](C(=O)N[C@@H](C)C(=O)O)NC(=O)[C@H](CCCNC(=N)N)NC(=O)[C@H](Cc2ccccc2)NC(=O)[C@H](CO)NC(=O)[C@H](CC(=O)O)NC(=O)CNC(=O)[C@H](CCCNC(=N)N)NC(=O)[C@@H]2CCCN2C1=O [Cyclic peptide 72, KKKG-(Hcy)-IPRGDSFR(Dab(acetyl))A] (H-KKKG[hCys]IPRGDSFR[Dab]A-OH; linker 5-14 via X2)	–	–	A (The residual rate of the cyclic peptide is 70% or more.)
–	< 50	C[C@H](NC(=O)[C@@H]1CCNC(=O)CSCC[C@H](NC(=O)[C@H](CCCCN)NC(=O)[C@H](CCCCN)NC(=O)[C@@H](N)CCCCN)C(=O)N[C@@H](CCC(=O)O)C(=O)N2CCC[C@H]2C(=O)N[C@@H](CCCNC(=N)N)C(=O)NCC(=O)N[C@@H](CC(=O)O)C(=O)N[C@@H](CC(N)=O)C(=O)N[C@@H](Cc2ccccc2)C(=O)N[C@@H](CCCNC(=N)N)C(=O)N1)C(=O)O [Cyclic peptide 23, KKK-(Hcy)-EPRGDNFR(Dab(acetyl))A] (H-KKK[hCys]EPRGDNFR[Dab]A-OH; linker 4-13 via X2)	–	–	A (The residual rate of the cyclic peptide is 70% or more.)
50 to 100	–	CC[C@H](C)[C@@H]1NC(=O)[C@@H](NC(=O)CNC(=O)[C@H](CCCCN)NC(=O)[C@H](CCCCN)NC(=O)[C@@H](N)CCCCN)CCCCNC(=O)CSC(C)(C)[C@@H](C(=O)N[C@@H](C)C(=O)O)NC(=O)[C@H](CCCNC(=N)N)NC(=O)[C@H](Cc2ccccc2)NC(=O)[C@H]([C@@H](C)O)NC(=O)[C@H](CC(=O)O)NC(=O)CNC(=O)[C@H](CCCNC(=N)N)NC(=O)[C@@H]2CCCN2C1=O [Cyclic peptide 135, KKKG(Lys(acetyl))IPRGDTFR-(Pen)-A] (H-KKKGKIPRGDTFR[Pen]A-OH; linker 5-14 via X1)	A (The residual rate of the cyclic peptide is 70% or more.)	–	–
< 50	–	CC(C)[C@@H]1NC(=O)[C@@H](NC(=O)[C@H](C)NC(=O)[C@H](CCCCN)NC(=O)[C@H](CCCCN)NC(=O)[C@@H](N)CCCCN)CCSCC(=O)NCC[C@@H](C(=O)N[C@@H](C)C(=O)O)NC(=O)[C@H](C)NC(=O)[C@H](Cc2ccccc2)NC(=O)[C@H]([C@@H](C)O)NC(=O)[C@H](CC(=O)O)NC(=O)CNC(=O)[C@H](CCCNC(=N)N)NC(=O)[C@@H]2CCCN2C1=O [Cyclic peptide 108, KKKA-(Hcy)-VPRGDTFA(Dab(acetyl))A] (H-KKKA[hCys]VPRGDTFA[Dab]A-OH; linker 5-14 via X2)	A (The residual rate of the cyclic peptide is 70% or more.)	–	–
